From the CheMixHub viscosity set
Several values for one entry are separate records, joined by “and”; a condition that tells them apart may be missing. Equal values may be shown once. ± gives the uncertainty stated by the source.

CCC#N
viscosity [mPa·s]
Conditions	298.15 K	303.15 K	308.15 K	313.15 K	318.15 K	323.15 K
101 kPa	0.42 ± 0.01	0.41 ± 0.01	0.39 ± 0.01	0.37 ± 0.01	0.36 ± 0.01	0.31 ± 0.01
101.33 kPa	–	0.3886 ± 0.0035	–	–	–	–

CCCCCC(=O)[O-].[NH3+]CCO
101 kPa
Conditions	viscosity [mPa·s]
293.15 K	2571 ± 280
298.15 K	1765 ± 200
303.15 K	1239 ± 130
308.15 K	892.2 ± 89
313.15 K	645.8 ± 62
318.15 K	477.6 ± 43
323.15 K	358.5 ± 31

CCCCCCC(=O)[O-].CC[NH+](C(C)C)C(C)C
Conditions	viscosity [mPa·s]
298.15 K, 101.3 kPa	12.23 ± 0.76

CCCCCCCCCCCC
Conditions	viscosity
298.15 K, 101 kPa	1.34 ± 0.06 mPa·s and 1.338 ± 0.012 mPa·s and 1.336 ± 0.032 mPa·s
298.15 K, 101.33 kPa	1.324 ± 0.017 mPa·s
298.15 K, 103 kPa	1.291 ± 0.041 mPa·s
303.15 K, 101.33 kPa	1.215 ± 0.03 mPa·s and 1.209 ± 0.027 mPa·s
307.52 K, 101.3 kPa	1.159 ± 0.014 mPa·s
307.57 K, 101.3 kPa	1.159 ± 0.014 mPa·s
308.15 K, 100 kPa	1.115 ± 0.11 mPa·s and 1.157 ± 0.014 mPa·s
308.15 K, 101 kPa	1.112 ± 0.014 mPa·s and 1.125 ± 0.028 mPa·s
308.15 K, 103 kPa	1.086 ± 0.041 mPa·s
313.15 K, 101 kPa	1.039 ± 0.026 mPa·s
313.15 K, 101.33 kPa	1.025 ± 0.026 mPa·s
318.15 K, 100 kPa	0.986 ± 0.13 mPa·s
318.15 K, 101 kPa	0.935 ± 0.012 mPa·s and 0.965 ± 0.024 mPa·s
318.15 K, 101.33 kPa	0.935 ± 0.012 mPa·s
318.15 K, 103 kPa	0.936 ± 0.041 mPa·s
323.15 K, 100 kPa	0.9146 ± 0.037 mPa·s and 0.921 ± 0.13 mPa·s
323.15 K, 101 kPa	0.898 ± 0.023 mPa·s
323.15 K, 102 kPa	0.917 ± 0.021 mPa·s (2×) and 0.919 ± 0.021 mPa·s

CCCCCCCCCCCC[P+](CC)(CC)CC.N#Cc1ccc[n-]1
100 kPa
Conditions	viscosity
293.15 K	422 ± 62 mPa·s and 423 ± 62 mPa·s
298.15 K	296 ± 43 mPa·s and 310 ± 45 mPa·s
303.15 K	212 ± 30 mPa·s and 214 ± 31 mPa·s
313.15 K	117 ± 17 mPa·s and 114 ± 16 mPa·s

CCCCCCCCCCO
Conditions	viscosity
293.15 K, 100 kPa	14.27 ± 0.2 mPa·s
293.15 K, 101 kPa	13.04 ± 0.067 mPa·s
293.15 K, 101.33 kPa	14.55 ± 0.34 mPa·s
298.15 K, 101.33 kPa	11.57 ± 1.2 mPa·s
300 K, 101 kPa	10.3 ± 0.13 mPa·s
303.15 K, 100 kPa	9.708 ± 0.13 mPa·s
303.15 K, 101.3 kPa	8.835 ± 0.087 mPa·s
308 K, 101 kPa	7.646 ± 0.054 mPa·s
308.15 K, 100 kPa	8.108 ± 0.11 mPa·s
308.15 K, 101.3 kPa	8.39 ± 0.18 mPa·s
308.15 K, 101.33 kPa	7.918 ± 0.84 mPa·s
310 K, 101 kPa	7.09 ± 0.09 mPa·s
313 K, 101 kPa	6.396 ± 0.17 mPa·s
313.15 K, 100 kPa	6.846 ± 0.19 mPa·s
313.15 K, 101 kPa	6.846 ± 0.21 mPa·s and 7.929 ± 1.6 mPa·s and 6.845 ± 0.048 mPa·s
313.15 K, 101.3 kPa	6.955 ± 0.072 mPa·s
313.15 K, 101.33 kPa	6.955 ± 0.048 mPa·s and 6.955 ± 0.04 mPa·s and 6.955 ± 0.072 mPa·s
318.15 K, 100 kPa	5.879 ± 0.16 mPa·s and 5.771 ± 0.079 mPa·s and 5.785 ± 0.18 mPa·s
318.15 K, 101.3 kPa	5.878 ± 0.13 mPa·s
320 K, 101 kPa	5 ± 0.06 mPa·s
323.15 K, 100 kPa	4.918 ± 0.067 mPa·s and 4.94 ± 0.15 mPa·s

CCOC(=O)OCC
Conditions	viscosity
293.15 K, 101 kPa	0.8024 ± 0.0091 mPa·s
298.15 K, 101 kPa	0.74 mPa·s and 0.7539 ± 0.0087 mPa·s
303.15 K, 100 kPa	0.698 ± 0.015 mPa·s
303.15 K, 101 kPa	0.701 ± 0.019 mPa·s
308.15 K, 100 kPa	0.65 ± 0.02 mPa·s
308.15 K, 101 kPa	0.656 ± 0.018 mPa·s
313.15 K, 100 kPa	0.622 ± 0.013 mPa·s
313.15 K, 101 kPa	0.621 ± 0.017 mPa·s
318.15 K, 100 kPa	0.58 ± 0.02 mPa·s
318.15 K, 101.3 kPa	0.578 ± 0.008 mPa·s
318.15 K, 101.33 kPa	0.578 ± 0.008 mPa·s
323.15 K, 100 kPa	0.54 ± 0.02 mPa·s
323.15 K, 101 kPa	0.543 ± 0.0064 mPa·s

CCn1cc[n+](C)c1.F[B-](F)(F)F
viscosity
Conditions	293.15 K	298.15 K	303.15 K	313.15 K	323.15 K
100 kPa	50.54 ± 5.1 mPa·s	41.45 ± 4.2 mPa·s	34.53 ± 3.5 mPa·s	24.83 ± 2.5 mPa·s	18.62 ± 1.9 mPa·s
101 kPa	–	36.8 ± 6.5 mPa·s	28 ± 0.45 mPa·s and 28 ± 2.8 mPa·s	20.41 ± 0.33 mPa·s and 20.41 ± 2.1 mPa·s	15.35 ± 0.25 mPa·s and 15.35 ± 1.5 mPa·s

CN1CCN(C)C1=O
100 kPa
Conditions	viscosity [mPa·s]
293.15 K	2.139 ± 0.088
298.15 K	1.945 ± 0.08
303.15 K	1.76 ± 0.072
308.15 K	1.616 ± 0.066
313.15 K	1.491 ± 0.061
318.15 K	1.381 ± 0.057
323.15 K	1.28 ± 0.052

COC=O
Conditions	viscosity [mPa·s]
298.15 K, 101.33 kPa	0.328 ± 0.003

COCCOCCO
viscosity
Conditions	293.15 K	298.15 K	303.15 K	308.15 K	313.15 K	318.15 K	323.15 K
101 kPa	3.906 ± 0.058 mPa·s	3.442 ± 0.062 mPa·s and 3.574 ± 0.053 mPa·s	3.152 ± 0.047 mPa·s	2.593 ± 0.048 mPa·s	–	2.159 ± 0.039 mPa·s	–
101.3 kPa	3.943 ± 0.022 mPa·s	–	3.016 ± 0.017 mPa·s	–	2.348 ± 0.013 mPa·s	–	1.902 ± 0.011 mPa·s
101.33 kPa	–	3.565 ± 0.037 mPa·s and 3.565 ± 0.084 mPa·s	–	2.627 ± 0.063 mPa·s and 2.865 ± 0.035 mPa·s	–	–	–

Cc1ccc(Cl)cc1
viscosity
Conditions	298.15 K	303.15 K	308.15 K	313.15 K	318.15 K
100 kPa	0.83 ± 0.018 mPa·s	0.782 ± 0.05 mPa·s	0.724 ± 0.05 mPa·s and 0.737 ± 0.016 mPa·s	0.682 ± 0.05 mPa·s	0.632 ± 0.05 mPa·s and 0.662 ± 0.014 mPa·s
101 kPa	–	0.782 ± 0.013 mPa·s and 0.782 ± 0.021 mPa·s	0.728 ± 0.02 mPa·s	0.684 ± 0.012 mPa·s and 0.682 ± 0.019 mPa·s	0.632 ± 0.018 mPa·s

Cc1ccc(N)cc1
101 kPa
Conditions	viscosity [mPa·s]
313.05 K	2.08 ± 0.02
323.1 K	1.8 ± 0.036

Cc1ccccc1C
Conditions	viscosity
293.15 K, 101 kPa	0.7604 ± 0.011 mPa·s
293.15 K, 101.33 kPa	0.812 ± 0.008 mPa·s
298.15 K, 100 kPa	0.7464 ± 0.09 mPa·s
298.15 K, 101 kPa	0.765 ± 0.012 mPa·s and 0.761 ± 0.02 mPa·s
298.15 K, 101.3 kPa	0.78 ± 0.01 mPa·s
298.15 K, 101.33 kPa	0.7587 ± 0.0096 mPa·s
303.15 K, 101 kPa	0.6725 ± 0.01 mPa·s and 0.68 ± 0.007 mPa·s and 0.7095 ± 0.018 mPa·s
303.15 K, 101.3 kPa	0.7272 ± 0.013 mPa·s and 0.7062 ± 0.037 mPa·s
303.15 K, 101.32 kPa	0.702 ± 0.018 mPa·s
303.15 K, 101.33 kPa	0.757 ± 0.078 mPa·s and 0.711 ± 0.007 mPa·s
308.15 K, 100 kPa	0.6199 ± 0.074 mPa·s
308.15 K, 101 kPa	0.676 ± 0.0068 mPa·s and 0.656 ± 0.009 mPa·s
308.15 K, 101.33 kPa	0.5381 ± 0.0069 mPa·s and 0.725 ± 0.075 mPa·s and 0.659 ± 0.005 mPa·s
313.15 K, 101.32 kPa	0.627 ± 0.016 mPa·s
313.15 K, 101.33 kPa	0.702 ± 0.073 mPa·s
318.15 K, 101.33 kPa	0.682 ± 0.072 mPa·s
323.15 K, 101.3 kPa	0.5554 ± 0.03 mPa·s

Cl[Si](Cl)(Cl)Cl
101 kPa
Conditions	viscosity
303.1 K	0.462 ± 0.019 mPa·s and 0.442 ± 0.018 mPa·s
313.1 K	0.402 ± 0.017 mPa·s

OCCN(CCO)CCO
viscosity
Conditions	293.15 K	298.15 K	303.15 K	313.15 K	323.15 K
100 kPa	935 ± 140 mPa·s	611 ± 91 mPa·s	413 ± 60 mPa·s	–	–
101 kPa	911.7 ± 63 mPa·s and 795 ± 48 mPa·s	607 ± 26 mPa·s	403 ± 25 mPa·s	201.7 ± 4.8 mPa·s	123 ± 3.6 mPa·s

OCCOCCOCCO
viscosity
Conditions	293.15 K	298.1 K	298.15 K	308.15 K	313.15 K	318.15 K	323.15 K
100 kPa	42 ± 0.9 mPa·s and 48.2 ± 1 mPa·s and 48.4 ± 0.2 mPa·s	–	37.1 ± 3.8 mPa·s and 37.8 ± 0.2 mPa·s	23.3 ± 0.1 mPa·s	19.8 ± 0.1 mPa·s	15.4 ± 0.4 mPa·s and 15.83 ± 0.33 mPa·s and 15.1 ± 0.1 mPa·s	13.23 ± 0.28 mPa·s
101 kPa	–	37.4 ± 3 mPa·s	37.1 ± 0.8 mPa·s	23.36 ± 0.2 mPa·s and 21.2 ± 0.5 mPa·s	19.8 ± 0.4 mPa·s	15.59 ± 0.14 mPa·s and 16.1 ± 0.4 mPa·s	–
101.32 kPa	46.1 ± 3.2 mPa·s	–	–	–	17.4 ± 1.2 mPa·s	–	–

c1ccc(Oc2ccccc2)cc1
101 kPa
Conditions	viscosity
303.15 K	3.3 ± 0.14 mPa·s and 3.051 ± 0.065 mPa·s
308.15 K	2.92 ± 0.12 mPa·s
313.15 K	2.61 ± 0.11 mPa·s
